This test concerns Trichomonas vaginalis G3 trophozoites. To be noted: for T.vaginalis_Absorbance_Rep1: replicate 1, raw absorbance; for T.vaginalis_Absorbance_Rep2: replicate 2, raw absorbance.
Where [1] appears, read: HTS, parasite screen at 1 µg/mL, replicate 1.
Setting [2] is: HTS, parasite screen at 1 µg/mL.
Setting [3] is: HTS, parasite screen at 1 µg/mL, replicate 2.
Where [4] appears, read: HTS replicate 1, parasite screen 1 µg/mL.
Setting [5] is: HTS replicate 2, parasite screen 1 µg/mL.

The results in this text go back to article PMC7897990, “TriTOX: A novel Trichomonas vaginalis assay platform for high-throughput screening of compound libraries” (International Journal for Parasitology: Drugs and Drug …, 2021).

Where two headings read alike, the source gives them in different places. Starred links: 1 amine or outer side, 2 acyl side, 3 side chain; linkers in the order of their positions; H or OH if unused. Positions of bridges follow the written chain, without caps; N, C: chain ends. Non-standard residues stand in square brackets, D forms with d. Residues, ends and D or L forms follow the SMILES beside them. *: point of attachment. Orn(4R-OH,5R-OH) = O=C([C@H](C[C@@H](O)[C@@H](O)N[*:3])N[*:1])[*:2]; Tetradecanoyl(10R,12S-Me2) = CC[C@H](C)C[C@H](C)CCCCCCCCC(=O)*; hTyr(3S-OH,4S-OH) = N[C@H](C(=O)O)[C@H](O)[C@@H](O)c1ccc(O)cc1; Gln(3R-OH) = NC(=O)C[C@@H](O)[C@H](N)C(=O)O; Pro(3S-OH) = O=C(O)[C@H]1NCC[C@@H]1O; Hyp = O=C(O)[C@@H]1C[C@@H](O)CN1

Under setting [1], `CO[C@H]1C[C@H](O[C@H]2[C@H](C)O[C@@H](O[C@@H]3/C(C)=C/C[C@@H]4C[C@@H](C[C@]5(C=C[C@H](C)[C@@H](C6CCCCC6)O5)O4)OC(=O)C4=C[C@H](C)[C@@H](O)[C@H]5OC/C(=C\C=C[C@@H]3C)[C@@]45O)C[C@@H]2OC)O[C@@H](C)[C@@H]1O` [Doramectin, delta2-] registered a T.vaginalis_%inb_Rep1 of 13.79%. Further, under setting [2], the T.vaginalis_Absorbance_Rep1 is given as 0.965 and the T.vaginalis_Absorbance_Rep2 is reported as 0.828. Under setting [3], the T.vaginalis_%inb_Rep2 came to 15.04%.
As to `COc1cc(O)c2c(=O)oc3c(O)c(OC)cc(C)c3c2c1` [Graphislactone A], under setting [1], the T.vaginalis_%inb_Rep1 was 13.44%. Under setting [2], the T.vaginalis_Absorbance_Rep1 is given as 0.967 and the T.vaginalis_Absorbance_Rep2 is recorded as 0.892. Under setting [3], this molecule gave a T.vaginalis_%inb_Rep2 of 16.48%.
Take `CC1=C[C@H]2C(=O)O[C@H]3C[C@@H](C/C=C(\C)C[C@@H](C)/C=C/C=C4\CO[C@H](/C1=N/O)[C@@]42O)O[C@@]1(CC[C@H](C)[C@@H](C)O1)C3` [Milbemycin A3 oxime]: the T.vaginalis_%inb_Rep1 under setting [4] worked out at 12.78%. Also, the T.vaginalis_%inb_Rep2 under setting [5] came out at 11.35%.
On the same counts, the results for `COc1c(OC)c(-c2c[nH]c3ccc(O)cc23)c(OC)c(OC)c1-c1c[nH]c2ccccc12` [Petromurin C] are 7.91% and 12.64%.
In turn, `C=C1CC[C@H]2C(C)(C)CCC[C@]2(C)[C@H]1C[C@@]12C[C@H]3C(=O)N[C@@H](CC(C)C)C(=O)N3[C@@H]1Nc1ccccc12` [Drimentine A] returned a T.vaginalis_%inb_Rep1 under setting [1] of 15.46%. Under setting [2], this molecule registered a T.vaginalis_Absorbance_Rep1 of 0.996 and a T.vaginalis_Absorbance_Rep2 of 0.688. The T.vaginalis_%inb_Rep2 under setting [3] amounted to 4.92%.
As to `CCCN1C[C@H](C)[C@@H](O)[C@](C)(O)[C@@H](CC)OC(=O)[C@H](C)[C@@H](O[C@H]2C[C@@](C)(OC)[C@@H](O)[C@H](C)O2)[C@H](C)[C@@H](O[C@@H]2O[C@H](C)C[C@H](N(C)C)[C@H]2O)[C@](C)(O)C[C@H]1C` [Gamithromycin], the T.vaginalis_%inb_Rep1 under setting [1] is 5.73%. For the same molecule, under setting [2], the T.vaginalis_Absorbance_Rep1 was determined as 0.815 and the T.vaginalis_Absorbance_Rep2 is reported as 0.759. Under setting [3], this molecule gave a T.vaginalis_%inb_Rep2 of 7.95%.
For the molecule `CC[C@H]1OC(=O)[C@H](C)[C@@H](O[C@H]2C[C@@](C)(OC)[C@@H](O)[C@H](C)O2)[C@H](C)[C@@H](O[C@@H]2O[C@H](C)C[C@H](N(C)C)[C@H]2O)[C@](C)(O)C[C@@H](C)C(=O)[C@H](C)[C@@H](O)[C@H]1C` [Erythromycin B], the T.vaginalis_%inb_Rep1 under setting [1] was 4.47%. Further, under setting [2], the T.vaginalis_Absorbance_Rep1 was 0.792 and the T.vaginalis_Absorbance_Rep2 came to 0.643. This molecule also came in with a T.vaginalis_%inb_Rep2 under setting [3] of 1.66%.
Under setting [4], `COc1ccc([C@@]2(O)c3c(ccc(/C=C/[C@]4(C)CCC(C)(C)CO4)c3O)NC(=O)[C@@H]2OC)cc1` [Penigequinolone A] gave a T.vaginalis_%inb_Rep1 of 16.23%. In addition, the T.vaginalis_%inb_Rep2 under setting [5] was 11.87%.
For the molecule `CO[C@H]1C[C@H](O[C@H]2[C@H](C)O[C@@H](O[C@@H]3/C(C)=C/C[C@@H]4C[C@@H](C[C@]5(C=C[C@H](C)[C@@H](C6CCCCC6)O5)O4)OC(=O)[C@@H]4C=C(C)[C@@H](O)[C@H]5OC/C(=C\C=C\[C@@H]3C)[C@]54O)C[C@@H]2OC)O[C@@H](C)[C@@H]1O` [Doramectin], the T.vaginalis_%inb_Rep1 under setting [1] worked out at 11.20%. Under setting [2], this molecule returned a T.vaginalis_Absorbance_Rep1 of 0.917 and a T.vaginalis_Absorbance_Rep2 of 0.775. This molecule gave a T.vaginalis_%inb_Rep2 under setting [3] of 11.21%.
The molecule `CC[C@@H]1CCN[C@H](C(=O)N[C@@H]([C@H]2O[C@H](SC)[C@H](O)[C@@H](O)[C@H]2O)[C@H](C)Cl)C1` [Pirlimycin] registered a T.vaginalis_%inb_Rep1 under setting [4] of 5.02%. The molecule further came in with a T.vaginalis_%inb_Rep2 under setting [5] of 5.77%.
As for `Cc1c2c(c(O)c3c(O)cccc13)C(=O)C1(O)C(O)=C(C(N)=O)C(=O)C(N(C)C)C1C2.Cl` (stereo not shown) [Epianhydrotetracycline hydrochloride], under setting [1], the T.vaginalis_%inb_Rep1 is 8.78%. Under setting [2], this molecule showed a T.vaginalis_Absorbance_Rep1 of 0.872 and a T.vaginalis_Absorbance_Rep2 of 0.644. The same molecule returned a T.vaginalis_%inb_Rep2 under setting [3] of 1.74%.
The matching figures for `CCCCCCC(C)C/C(C)=C\C(/C=C(C)/C=C/C(O)C(C)(C)c1cc(O)c([C@@H]2O[C@H](CO)C[C@H](O)[C@H]2O)c(=O)o1)CO` (stereo partly shown) [Fusapyrone]: 13.39%, 0.966, 0.841 and 13.21%.
The matching figures for `C[C@@H]1C=C2C(=O)O[C@@H]3CC[C@H](C1)[C@]23O` [Galiellalactone]: 19.07%, 1.078, 0.724 and 5.71%.
Regarding `CN1CCC2(c3cccc4c3NC3N(C)CCC43c3cccc4c3NC3N(C)CCC43C34CCN(C)C3Nc3c(C56CCN(C)C5Nc5ccccc56)cccc34)c3ccccc3NC12` (stereo not shown) [Psychotridine], the T.vaginalis_%inb_Rep1 under setting [4] was 9.23%. For the same molecule, the T.vaginalis_%inb_Rep2 under setting [5] turned out to be 6.15%.
`COc1cc([C@H]2[C@@]3(O)[C@H](O)[C@H]4C[C@]2(O)[C@](O)(C(=O)O4)[C@H]3C(=O)c2ccccc2)oc(=O)c1` [Enterocin]: the T.vaginalis_%inb_Rep1 under setting [1] is on record as 13.08%. Under setting [2], the T.vaginalis_Absorbance_Rep1 turned out to be 0.96 and the T.vaginalis_Absorbance_Rep2 was found to be 0.828. Under setting [3], this molecule returned a T.vaginalis_%inb_Rep2 of 12.38%.
`CN(C)C1C(=O)C(C(=O)NCN2CCN(CCO)CC2)=C(O)C2(O)C(=O)C3=C(O)c4c(O)cccc4C(C)(O)C3CC12` (stereo not shown) [Pipacycline] gave a T.vaginalis_%inb_Rep1 under setting [4] of 11.66%. The molecule further returned a T.vaginalis_%inb_Rep2 under setting [5] of 12.19%.
The matching figures for `CC(=O)c1c(O)cc(O)cc1O` [Monoacetylphloroglucinol]: 4.36% and 14.18%.
On to `CN(C)C1C(=O)C(C(N)=O)=C(O)C2(O)C(=O)C3=C(O)c4c(O)cccc4C(C)(O)C3C(O)C12` (stereo not shown) [Epioxytetracycline], for which the T.vaginalis_%inb_Rep1 under setting [1] is 13.46%. Under setting [2], this molecule gave a T.vaginalis_Absorbance_Rep1 of 0.959 and a T.vaginalis_Absorbance_Rep2 of 0.861. The same molecule displayed a T.vaginalis_%inb_Rep2 under setting [3] of 17.43%.
The matching figures for `CC(C)CCC[C@@H](C)[C@@H]1CC[C@]2(C)C3=C(CC[C@@]12C)[C@@]1(C)CC[C@H](O)C(C)(C)[C@@H]1CC3` [Dihydroeuphol]: 14.92%, 0.986, 0.759 and 10.05%.
With `CCOC(=O)c1c(C)cc(O)cc1O` [Ethyl orsellinate], the T.vaginalis_%inb_Rep1 under setting [1] came to 14.45%. Under setting [2], this molecule had a T.vaginalis_Absorbance_Rep1 of 0.987 and a T.vaginalis_Absorbance_Rep2 of 0.817. The molecule also came in with a T.vaginalis_%inb_Rep2 under setting [3] of 11.67%.
For the molecule `O=c1c2cccn2c(=O)c2cccn12` [Pyrocoll], under setting [4], the T.vaginalis_%inb_Rep1 turned out to be 15.47%. Moreover, the T.vaginalis_%inb_Rep2 under setting [5] worked out at 11.29%.
`CCC1OC2(CCC1C)CC1CC(CC=C(C)CC(C)C=CC=C3COC4C(O)C(C)=CC(C(=O)O1)C34O)O2` (stereo not shown) [Milbemycin A4]: the T.vaginalis_%inb_Rep1 under setting [4] was determined as 12.17%. The molecule also came in with a T.vaginalis_%inb_Rep2 under setting [5] of 12.96%.
On the same counts, the results for `Cc1ncc(-c2c[nH]c3ccccc23)o1` [Pimprinine] are 11.61% and 11.80%.
Turning to `CCC1NC(=O)C(NC(=O)c2ncccc2O)C(C)OC(=O)C(c2ccccc2)NC(=O)C2CC(=O)CCN2C(=O)C(Cc2ccccc2)N(C)C(=O)C2CCCN2C1=O` (stereo not shown) [Virginiamycin S1], the T.vaginalis_%inb_Rep1 under setting [1] stood at 9.96%. In addition, the T.vaginalis_%inb_Rep2 under setting [3] turned out to be 3.72%.
For `COC(=O)c1cc(O)cc(OC)c1C(=O)c1c(O)cc(C)cc1OC` [Monomethylsulochrin], the T.vaginalis_%inb_Rep1 under setting [4] worked out at 8.42%. Under setting [5], the T.vaginalis_%inb_Rep2 is listed as 11.03%.
In turn, `CC1=CCCC(C)C(O)C(C)C(O)CCC=CC(C)C(O)C=CC(C)C(O)C(C)=CC(O[C@H]2O[C@H](CO)[C@@H](O)[C@H](O)[C@@H]2O)C(O)CC(O)CC(O)CC(O)C(C)C(O)C(C)C(O)CC(O)CC(O)C=CCC(C(C)C(O)CCCN)OC1=O` (stereo partly shown) [Desertomycin A] yielded a T.vaginalis_%inb_Rep1 under setting [1] of 12.39%. Under setting [2], the T.vaginalis_Absorbance_Rep1 is 0.939 and the T.vaginalis_Absorbance_Rep2 is recorded as 0.798. Further, under setting [3], the T.vaginalis_%inb_Rep2 turned out to be 12.87%.
On the same counts, the results for `COc1cc2c(oc(=O)c3cc(C)cc(OC)c32)c2c(C3OC(C(C)O)C(O)C3O)ccc(O)c12` (stereo not shown) [Gilvocarcin M] are 10.14%, 0.902, 0.852 and 13.92%.
Under setting [2], Enniatin A yielded a T.vaginalis_Absorbance_Rep1 of 0.983 and a T.vaginalis_Absorbance_Rep2 of 0.865.
Under setting [4], `CC[C@H](C)C[C@H](C)CCCCCCCCC(=O)N[C@H]1C[C@@H](O)[C@@H](O)NC(=O)[C@@H]2[C@@H](O)CCN2C(=O)[C@H]([C@H](O)CC(N)=O)NC(=O)[C@H]([C@H](O)[C@@H](O)c2ccc(O)cc2)NC(=O)[C@@H]2C[C@@H](O)CN2C(=O)[C@H]([C@@H](C)O)NC1=O` [Pneumocandin B0] ({Tetradecanoyl(10R,12S-Me2)}-[Orn(4R-OH,5R-OH)]T[Hyp][hTyr(3S-OH,4S-OH)][Gln(3R-OH)][Pro(3S-OH)]; lactam 1-C) came in with a T.vaginalis_%inb_Rep1 of 10.50%. Moreover, the T.vaginalis_%inb_Rep2 under setting [5] was 8.92%.
Take `CC[C@H](C)[C@@H]1OC(=O)C(C)(C)[C@@H](O)[C@@H](Cc2ccccc2)OC(=O)[C@H](C(C)C)OC(=O)[C@@H](NC(=O)c2cccc(NC=O)c2O)[C@H](C)OC1=O` [Neoantimycin]: the T.vaginalis_%inb_Rep1 under setting [4] is recorded as 13.59%. The T.vaginalis_%inb_Rep2 under setting [5] came to 11.67%.
In turn, `COC1=C(OC)C(O)C(C)C(C)C1=O` (stereo not shown) [Glioroseinol] displayed a T.vaginalis_%inb_Rep1 under setting [1] of 11.16%. Further, under setting [2], the T.vaginalis_Absorbance_Rep1 came to 0.922 and the T.vaginalis_Absorbance_Rep2 amounted to 0.665. The T.vaginalis_%inb_Rep2 under setting [3] was determined as 1.92%.
